The target in data set [1] is T1, Peroxisome proliferator-activated receptor alpha (Homo sapiens, UniProt Q07869).
T1 sequence (Q07869 whole entry): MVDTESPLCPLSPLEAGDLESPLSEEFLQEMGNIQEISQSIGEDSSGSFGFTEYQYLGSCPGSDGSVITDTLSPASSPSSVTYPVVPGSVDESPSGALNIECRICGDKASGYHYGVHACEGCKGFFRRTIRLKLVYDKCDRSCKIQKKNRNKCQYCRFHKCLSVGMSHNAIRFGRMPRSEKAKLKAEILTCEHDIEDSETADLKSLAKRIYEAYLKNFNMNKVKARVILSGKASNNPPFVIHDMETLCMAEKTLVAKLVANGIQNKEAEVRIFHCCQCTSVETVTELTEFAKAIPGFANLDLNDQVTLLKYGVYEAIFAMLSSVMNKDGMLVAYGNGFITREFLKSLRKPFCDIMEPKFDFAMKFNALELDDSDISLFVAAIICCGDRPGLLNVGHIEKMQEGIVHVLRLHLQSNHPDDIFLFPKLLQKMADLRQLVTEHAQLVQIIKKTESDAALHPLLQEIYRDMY
The data set can be described thus: Agonist activity at human PPARalpha in HepG2 cells by PPAR-GAL4 transactivation assay. In kind it is functional, cell-based.

For data set [2], the target named is T2, Peroxisome proliferator-activated receptor gamma (Homo sapiens, UniProt P37231).
T2 sequence (P37231 whole entry): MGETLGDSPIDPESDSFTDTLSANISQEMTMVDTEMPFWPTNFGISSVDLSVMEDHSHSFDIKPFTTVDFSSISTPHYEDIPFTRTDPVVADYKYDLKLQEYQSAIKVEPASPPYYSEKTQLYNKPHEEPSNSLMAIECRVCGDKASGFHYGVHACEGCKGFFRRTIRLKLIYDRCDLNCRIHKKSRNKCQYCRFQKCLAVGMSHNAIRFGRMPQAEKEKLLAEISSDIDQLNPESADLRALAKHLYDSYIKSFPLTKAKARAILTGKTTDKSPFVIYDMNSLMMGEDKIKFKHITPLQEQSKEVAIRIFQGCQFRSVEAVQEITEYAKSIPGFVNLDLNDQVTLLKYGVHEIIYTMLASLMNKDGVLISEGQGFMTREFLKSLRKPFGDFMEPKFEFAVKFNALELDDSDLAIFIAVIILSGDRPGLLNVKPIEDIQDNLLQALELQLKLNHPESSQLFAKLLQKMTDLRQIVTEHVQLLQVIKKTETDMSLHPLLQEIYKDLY
Description: Agonist activity at human PPARgamma in HepG2 cells by PPAR-GAL4 transactivation assay

Data set [3] can be described thus: AUC (0-24 hrs) in Sprague-Dawley rat at 10mg/kg, po. Details: dose 10 mg/kg, time < 24 hr, route oral. In kind it is ADME, organism-based. To be noted: plasma.
Data set [4] can be described thus: AUC (0-24 hrs) in Sprague-Dawley rat at 5 mg/kg, iv. In kind it is ADME, organism-based. Details: time < 24 hr, dose 5 mg/kg, route intravenous. To be noted: plasma.
Data set [5] is described as follows: Cmax in Sprague-Dawley rat at 10 mg/kg, po. In kind it is ADME, organism-based. Set-up: dose 10 mg/kg, route oral. To be noted: in vivo.
The nature of data set [6]: Tmax in Sprague-Dawley rat at 10 mg/kg, po. To be noted: in vivo. Format: ADME, organism-based. Set-up: dose 10 mg/kg, route oral.
A short description of data set [7]: Half life in Sprague-Dawley rat at 10 mg/kg, po. Format: ADME, organism-based. Details: dose 10 mg/kg, route oral. To be noted: in vivo.
Data set [8] in a line: Half life in Sprague-Dawley rat at 5 mg/kg, iv. In kind it is ADME, organism-based. Details: dose 5 mg/kg, route intravenous. To be noted: in vivo.
Data set [9] is described as follows: Clearance in Sprague-Dawley rat at 5 mg/kg, iv. In kind it is ADME, organism-based. Details: dose 5 mg/kg, route intravenous. To be noted: in vivo.
Data set [10] is described as follows: Volume of distribution in Sprague-Dawley rat at 5 mg/kg, iv. Format: ADME, organism-based. Details: dose 5 mg/kg, route intravenous. To be noted: in vivo, read-out: Vdss.
Data set [11] can be described thus: Bioavailability in Sprague-Dawley rat at 10 mg/kg, po. In kind it is ADME, organism-based. To be noted: in vivo.
Data set [12] has as its system Mus musculus. The data set can be described thus: Decrease in plasma glucose level in db/db mouse at 0.1 mg/kg, po. In kind it is functional. Set-up: scale not given: the % may be the effect or the level left.
In data set [13] the test system is Mus musculus. The data set can be described thus: Decrease in plasma glucose level in db/db mouse at 1 mg/kg, po. Format: functional. Set-up: scale not given: the % may be the effect or the level left.
Data set [14] has as its system Mus musculus. The data set can be described thus: Decrease in plasma glucose level in db/db mouse at 10 mg/kg, po. Format: functional. Set-up: scale not given: the % may be the effect or the level left.
The subject of data set [15] is Mus musculus. The data set can be described thus: Decrease in plasma triglyceride level in db/db mouse at 0.1 mg/kg, po. Format: functional. Details: scale not given: the % may be the effect or the level left.
The test system of data set [16] is Mus musculus. The data set can be described thus: Decrease in plasma triglyceride level in db/db mouse at 1 mg/kg, po. In kind it is functional. Set-up: scale not given: the % may be the effect or the level left.
In data set [17] the test system is Mus musculus. The data set can be described thus: Decrease in plasma triglyceride level in db/db mouse at 10 mg/kg, po. In kind it is functional. Set-up: scale not given: the % may be the effect or the level left.

The structures appear in SMILES notation.

Regarding `C/C(=N/OCc1ccc(F)cc1)C(Cc1ccc(OCCc2nc(-c3ccccc3)oc2C)cc1)C(=O)O` (stereo not given), the EC50 in data set [1] is 596 nM; in data set [2] it was 5 nM.

As to `CCO/N=C(\C)C(Cc1ccc(OCc2nc(-c3ccccc3)oc2C)cc1)C(=O)O` (stereo not given), the EC50 stood at 91 nM in [1] and 4 nM in data set [2].

Regarding `CCO/N=C(\C)C(Cc1ccc(OCc2nc(-c3ccc(F)cc3)oc2C)cc1)C(=O)O` (stereo not given), the figures for the concentration for a half-maximal effect (EC50) in data set [1] and in data set [2] were 12 nM and 6.8 nM, respectively.

For `C/C(=N\OCCF)C(Cc1ccc(OCc2nc(-c3ccc(F)cc3)oc2C)cc1)C(=O)O` (stereo not given), the results for the EC50 in [1] and in data set [2] were 23 nM and 7.7 nM, respectively.

For `CCO/N=C(\C)C(Cc1ccc(OCCc2nc(-c3ccc(F)cc3)oc2C)cc1)C(=O)O` (stereo not given), the concentration for a half-maximal effect (EC50) in [1] was 11.5 nM; in data set [2], 3 nM.

For the compound `CCCO/N=C(\C)C(Cc1ccc(OCCc2nc(-c3ccc(F)cc3)oc2C)cc1)C(=O)O` (stereo not given), the EC50 in data set [1] came out at 4 nM; in data set [2], 2.1 nM.

Turning to `C/C(=N\OCCF)C(Cc1ccc(OCCc2nc(-c3ccc(F)cc3)oc2C)cc1)C(=O)O` (stereo not given), the values for the EC50 in [1] and in data set [2] were 3.5 nM and 2.9 nM, respectively.

As to `CCCO/N=C(\C)C(Cc1ccc(OCc2nc(C(C)C)oc2C)cc1)C(=O)O` (stereo not given), the EC50 in data set [1] was 105 nM; in data set [2], 5 nM.

With `CCO/N=C(\C)C(Cc1ccc(OCCc2nc(C(C)C)oc2C)cc1)C(=O)O` (stereo not given), the EC50 is 139 nM in data set [1] and 20 nM in data set [2].

Turning to `CCCO/N=C(\C)C(Cc1ccc(OCCc2nc(C(C)C)oc2C)cc1)C(=O)O` (stereo not given), the EC50 was 10 nM in data set [1] and 5.2 nM in data set [2].

Take `CCCCO/N=C(\C)C(Cc1ccc(OCCc2nc(-c3ccccc3)oc2C)cc1)C(=O)O` (stereo not given): the EC50 in data set [1] worked out at 1.3 nM; in data set [2], 0.19 nM.

For `C/C(=N\OCC1CC1)C(Cc1ccc(OCCc2nc(-c3ccccc3)oc2C)cc1)C(=O)O` (stereo not given), the EC50 in data set [1] turned out to be 3.1 nM; in data set [2] it was 0.36 nM.

For the compound `CC/C(=N\OC)C(Cc1ccc(OCCc2nc(-c3ccccc3)oc2C)cc1)C(=O)O` (stereo not given), the values for the half-maximal effective concentration (EC50) in [1] and in [2] were 32 nM and 0.31 nM, respectively.

With `CCO/N=C(\CC)C(Cc1ccc(OCCc2nc(-c3ccccc3)oc2C)cc1)C(=O)O` (stereo not given), the values for the EC50 in data set [1] and in data set [2] were 26 nM and 0.1 nM, respectively.

Take `CO/N=C(\C)C(Cc1ccc(OCCc2nc(-c3ccccc3)oc2C)cc1)C(=O)O` (stereo not given): the EC50 in [1] worked out at 19 nM; in data set [2] it was 2.1 nM.

With `CCCO/N=C(\C)C(Cc1ccc(OCCc2nc(-c3ccccc3)oc2C)cc1)C(=O)O` (stereo not given), the EC50 is 4.9 nM in [1] and 0.55 nM in data set [2].

Regarding `CCO/N=C(\C)C(Cc1ccc(OCc2nc(C(C)C)oc2C)cc1)C(=O)O` (stereo not given), the EC50 came to 1240 nM in [1] and 48 nM in data set [2].

`CCCO/N=C(\C)C(Cc1ccc(OCc2nc(-c3ccc(F)cc3)oc2C)cc1)C(=O)O` (stereo not given): the EC50 in data set [1] was 11.7 nM; in [2], 28 nM.

Consider `CCO/N=C(\C)C(Cc1ccc(OCCc2nc(-c3ccccc3)oc2C)cc1)C(=O)O` (stereo not given), for which the half-maximal effective concentration (EC50) in [1] amounted to 12 nM; in [2], 1 nM.

Take `C/C(=N\OCC(C)C)C(Cc1ccc(OCCc2nc(-c3ccccc3)oc2C)cc1)C(=O)O` (stereo not given): the figures for the EC50 in data set [1] and in data set [2] were 2.2 nM and 0.3 nM, respectively.

Turning to `C/C(=N\OCc1ccc(F)cc1)C(Cc1ccc(OCCc2nc(-c3ccccc3)oc2C)cc1)C(=O)O` (stereo not given), the EC50 in data set [1] came out at 10.6 nM; in [2], 0.54 nM.

In the case of `CCCO/N=C(\C)C(Cc1ccc(OCc2nc(-c3ccccc3)oc2C)cc1)C(=O)O` (stereo not given), the EC50 amounted to 19 nM in [1] and 13 nM in data set [2]. Further, the AUC(0-t) at 24 h in data set [3] was 162 µg·h/mL; in [4], 113 µg·h/mL. The Cmax in data set [5] is 22600 ng/mL. The Tmax in data set [6] was 0.5 h. The half-life stood at 8.05 h in [7] and 5.93 h in data set [8]. Also, the clearance in [9] worked out at 0.8 mL/min/kg. In [10], the Vd was 0.329 L/kg. The compound also returned a bioavailability in [11] of 75.5%. Moreover, the Activity is on record as 8% in the data set with Mus musculus [12]; 56% in the data set on Mus musculus [13]; 73% in the data set with Mus musculus [14]; 43% in the data set on Mus musculus [15]; 41% with Mus musculus [16]; 58% with Mus musculus [17].

`CN(CCOc1ccc(CC2SC(=O)NC2=O)cc1)c1ccccn1` (stereo not given) [ROSIGLITAZONE]: the Activity in the data set on Mus musculus [14] and with Mus musculus [17] was 65% each time.

For `CCO[C@@H](Cc1ccc(OCCc2ccc(OS(C)(=O)=O)cc2)cc1)C(=O)O` [TESAGLITAZAR], the EC50 in [1] is 9800 nM; in [2], 3530 nM. Besides, the Activity in the data set with Mus musculus [13] was determined as 68%; in the data set on Mus musculus [16], 38%.

A word on the EC50: it is the concentration that produces a half-maximal response. Usually AUC(0-t) stands for exposure summed from dosing to a finite time, without extrapolation to infinity. A word on the Cmax: it is the maximum level reached in the sampled fluid or tissue. The term Tmax denotes the time at which the peak concentration occurs. In general, half-life refers to the time in which the quantity being followed falls by half. For orientation: clearance means the rate of elimination divided by the concentration. In general, bioavailability refers to dose-corrected exposure relative to a reference, in per cent.

For the origin of these results see ChEMBL document CHEMBL1143807, “Design and synthesis of oxime ethers of alpha-acyl-beta-phenylpropanoic acids as PPAR dual agonists” (Bioorg Med Chem Lett, 2007).
